In ChEMBL document CHEMBL4602728, “6-Amino[1,2,5]oxadiazolo[3,4-b]pyrazin-5-ol Derivatives as Efficacious Mitochondrial Uncouplers in STAM Mouse Model of Nonalcoholic Steatohepatitis” (J Med Chem, 2020):

Test: Induction of mitochondrial uncoupling in rat L6 cells assessed as increase in oxygen consumption rate incubated for 90 mins by Seahorse XF analyzer based assay
Assay type: mitochondria, Mitochondria

SMILES	EC50 [µM]
Oc1nc2nonc2nc1Nc1ccc(SC(F)(F)F)cc1	1.4
CCCCCc1ccc(Nc2nc3nonc3nc2O)cc1	2.4
Oc1nc2nonc2nc1Nc1cccc2ccccc12	20.4
Cc1ccc(Nc2nc3nonc3nc2O)cc1C	3
Oc1nc2nonc2nc1Nc1cccc(F)c1	31.2
Oc1nc2nonc2nc1NC1C2CC3CC(C2)CC1C3 (configuration not stated)	22.8
Oc1nc2nonc2nc1Nc1cc(C(F)(F)F)cc(C(F)(F)F)c1	4.5

Further molecules by falling EC50, results first:

EC50 [µM]	SMILES
113	Cc1cc(C)c(Nc2nc3nonc3nc2O)c(C)c1
23.4	Oc1nc2nonc2nc1Nc1cc(F)cc(F)c1
13.3	Oc1nc2nonc2nc1Nc1cccc(C(F)(F)F)c1
4.9	Oc1nc2nonc2nc1Nc1cccc(C(F)(F)F)c1F
3	Oc1nc2nonc2nc1Nc1ccc(OC(F)(F)F)c(Cl)c1
